In PubChem BioAssay (NCI):
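96-well plates; 48 h exposure; 5 concentrations. Endpoints by linear interpolation between flanking doses. Not reached: highest tested concentration assigned. TGI: total growth inhibition.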

Experiments:
Test in all cases: growth of human tumour cells (NCI), 48 h
[1] = system: KM12 colon
[2] = system: CCRF-CEM leukemia
[3] = system: 786-0 renal
[4] = system: CAKI-1 renal
[5] = system: HCT-15 colon
[6] = system: OVCAR-5 ovarian
[7] = system: HCT-116 colon
[8] = system: HS 578T breast
[9] = system: A549 NSCLC
[10] = system: NCI-H23 lung
[11] = system: NCI/ADR-RES ovarian
[12] = system: DU-145 prostate
[13] = system: TK-10 renal
[14] = system: ACHN renal
[15] = system: UACC-257 melanoma
[16] = system: U251 CNS
[17] = system: IGROV1 ovarian
[18] = system: RPMI-8226 leukemia
[19] = system: SR leukemia
[20] = system: HOP-92 NSCLC
[21] = system: SF-295 CNS
[22] = system: HOP-62 NSCLC
[23] = system: NCI-H522 lung
[24] = system: HL-60(TB) leukemia
[25] = system: MOLT-4 leukemia
[26] = system: A498 renal
[27] = system: SK-OV-3 ovarian
[28] = system: EKVX NSCLC
[29] = system: NCI-H226 lung
[30] = system: HT29 colon
[31] = system: OVCAR-3 ovarian
[32] = system: PC-3 prostate
[33] = system: UO-31 renal
[34] = system: MDA-MB-231 breast
[35] = system: T-47D breast
[36] = system: OVCAR-8 ovarian
[37] = system: LOX IMVI melanoma
[38] = system: SW-620 colon
[39] = system: SK-MEL-5 melanoma
[40] = system: COLO 205 colon
[41] = system: UACC-62 melanoma
[42] = system: SN12C renal
[43] = system: MDA-MB-435
[44] = system: HCC-2998 colon
[45] = system: SK-MEL-28 melanoma
[46] = system: SF-539 CNS
[47] = system: MDA-N
[48] = system: NCI-H460 lung
[49] = system: MCF7 breast
[50] = system: SF-268 CNS
[51] = system: BT-549 breast
[52] = system: MALME-3M melanoma
[53] = system: K-562 leukemia
[54] = system: OVCAR-4 ovarian
[55] = system: M14 melanoma
[56] = system: SK-MEL-2 melanoma
[57] = system: SNB-75 CNS
[58] = system: SNB-19 CNS

COc1ccc(C2=Nn3c(nc4sc(-c5ccccc5)cc4c3=O)SC2)cc1
TGI [1]: > 100 µM | TGI [2]: > 100 µM | TGI [3]: > 100 µM | TGI [4]: > 100 µM | TGI [5]: > 100 µM | TGI [6]: > 100 µM | TGI [7]: > 100 µM | TGI [8]: > 100 µM | TGI [9]: > 100 µM | TGI [10]: > 100 µM | TGI [11]: > 100 µM | TGI [12]: > 100 µM | TGI [13]: > 100 µM | TGI [14]: > 100 µM | TGI [15]: > 100 µM | TGI [16]: > 100 µM | TGI [17]: > 100 µM | TGI [18]: > 100 µM | TGI [19]: > 100 µM | TGI [20]: > 100 µM | TGI [21]: > 100 µM | TGI [22]: > 100 µM | TGI [23]: > 100 µM | TGI [24]: > 100 µM | TGI [25]: > 100 µM | TGI [26]: > 100 µM | TGI [27]: > 100 µM | TGI [28]: > 100 µM | TGI [29]: > 100 µM | TGI [30]: > 100 µM | TGI [31]: > 100 µM | TGI [32]: > 100 µM | TGI [33]: > 100 µM | TGI [34]: > 100 µM | TGI [35]: > 100 µM | TGI [36]: > 100 µM | TGI [37]: > 100 µM | TGI [38]: > 100 µM | TGI [39]: > 100 µM | TGI [40]: > 100 µM | TGI [41]: > 100 µM | TGI [42]: > 100 µM | TGI [43]: > 100 µM | TGI [44]: > 100 µM | TGI [45]: > 100 µM | TGI [46]: > 100 µM | TGI [47]: > 100 µM | TGI [48]: > 100 µM | TGI [49]: > 100 µM | TGI [50]: > 100 µM | TGI [51]: > 100 µM | TGI [52]: > 100 µM

O=C1CSC(c2ccc(Cl)cc2)N1c1ccc(-c2ccc(-n3c(-c4ccccc4)nc4ccccc4c3=O)cc2)cc1 (stereo not drawn)
TGI [1]: > 100 µM | TGI [53]: > 100 µM | TGI [2]: > 100 µM | TGI [3]: > 100 µM | TGI [4]: > 100 µM | TGI [5]: > 100 µM | TGI [54]: 56.8 µM | TGI [7]: > 100 µM | TGI [8]: > 100 µM | TGI [9]: > 100 µM | TGI [10]: > 100 µM | TGI [11]: 82.5 µM | TGI [12]: > 100 µM | TGI [13]: > 100 µM | TGI [55]: > 100 µM | TGI [14]: > 100 µM | TGI [15]: > 100 µM | TGI [16]: 85.8 µM | TGI [17]: > 100 µM | TGI [18]: > 100 µM | TGI [19]: > 100 µM | TGI [20]: 97.9 µM | TGI [21]: > 100 µM | TGI [22]: > 100 µM | TGI [23]: > 100 µM | TGI [24]: > 100 µM | TGI [25]: 83.6 µM | TGI [56]: > 100 µM | TGI [26]: > 100 µM | TGI [27]: > 100 µM | TGI [28]: > 100 µM | TGI [30]: 41.5 µM | TGI [31]: > 100 µM | TGI [32]: > 100 µM | TGI [57]: 26.6 µM | TGI [33]: 59.5 µM | TGI [34]: > 100 µM | TGI [35]: 52.1 µM | TGI [36]: > 100 µM | TGI [37]: 45.2 µM | TGI [38]: > 100 µM | TGI [39]: > 100 µM | TGI [40]: > 100 µM | TGI [41]: > 100 µM | TGI [42]: > 100 µM | TGI [43]: 71.3 µM | TGI [44]: > 100 µM | TGI [45]: > 100 µM | TGI [46]: > 100 µM | TGI [47]: > 100 µM | TGI [48]: > 100 µM | TGI [49]: > 100 µM | TGI [58]: > 100 µM | TGI [50]: > 100 µM | TGI [51]: > 100 µM | TGI [52]: > 100 µM
